Test results as given in PMC9229919, “4-Aminoquinoline-Based Adamantanes as Potential Anticholinesterase Agents in Symptomatic Treatment of Alzheimer’s Disease” (Pharmaceutics, 2022).
Like-named read-outs stand apart in the source and are kept apart here.

Columns and labels:
recombinant human AChE = molecular target: T1, recombinant human AChE (Homo sapiens, UniProt P22303); assay: biochemical; assay type: biochemical
T1 construct: gift of Dr Florian Nachon (Armed Forces Biomedical Research Institute, Brétigny-sur-Orge, France)
T1 sequence (P22303 32-614): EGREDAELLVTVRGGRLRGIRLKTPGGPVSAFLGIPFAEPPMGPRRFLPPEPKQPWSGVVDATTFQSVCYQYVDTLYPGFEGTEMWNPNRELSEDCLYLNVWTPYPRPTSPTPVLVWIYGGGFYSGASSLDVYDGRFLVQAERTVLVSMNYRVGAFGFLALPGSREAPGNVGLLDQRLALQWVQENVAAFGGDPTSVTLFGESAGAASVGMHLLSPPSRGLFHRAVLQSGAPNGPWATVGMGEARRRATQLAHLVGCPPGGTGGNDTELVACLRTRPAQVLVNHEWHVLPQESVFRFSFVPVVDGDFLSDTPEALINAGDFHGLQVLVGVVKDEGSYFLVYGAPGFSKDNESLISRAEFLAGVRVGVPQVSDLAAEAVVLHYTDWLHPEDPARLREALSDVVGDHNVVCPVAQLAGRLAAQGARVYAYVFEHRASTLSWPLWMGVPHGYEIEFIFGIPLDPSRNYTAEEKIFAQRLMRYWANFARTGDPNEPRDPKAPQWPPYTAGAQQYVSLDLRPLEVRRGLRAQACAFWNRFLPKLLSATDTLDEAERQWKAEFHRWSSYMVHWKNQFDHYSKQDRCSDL
How it was run: (§1)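 Modified Ellman assay with acetylthiocholine and DTNB in 0.1 M sodium phosphate pH 7.4 (enzymes diluted with 0.1% BSA), ≤0.2% DMSO, 25 °C. At least three inhibitor concentrations per substrate level; Ki,app from Hunter–Downs equation, Ki from y-intercept and inhibition type from Ki,app vs [S].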

purified human BChE = molecular target: T2, purified human BChE (Homo sapiens, UniProt P06276); assay: biochemical; assay type: biochemical
T2 construct: possibly also a gift of Dr Florian Nachon (the sentence is ambiguous)
T2 sequence (P06276 29-602): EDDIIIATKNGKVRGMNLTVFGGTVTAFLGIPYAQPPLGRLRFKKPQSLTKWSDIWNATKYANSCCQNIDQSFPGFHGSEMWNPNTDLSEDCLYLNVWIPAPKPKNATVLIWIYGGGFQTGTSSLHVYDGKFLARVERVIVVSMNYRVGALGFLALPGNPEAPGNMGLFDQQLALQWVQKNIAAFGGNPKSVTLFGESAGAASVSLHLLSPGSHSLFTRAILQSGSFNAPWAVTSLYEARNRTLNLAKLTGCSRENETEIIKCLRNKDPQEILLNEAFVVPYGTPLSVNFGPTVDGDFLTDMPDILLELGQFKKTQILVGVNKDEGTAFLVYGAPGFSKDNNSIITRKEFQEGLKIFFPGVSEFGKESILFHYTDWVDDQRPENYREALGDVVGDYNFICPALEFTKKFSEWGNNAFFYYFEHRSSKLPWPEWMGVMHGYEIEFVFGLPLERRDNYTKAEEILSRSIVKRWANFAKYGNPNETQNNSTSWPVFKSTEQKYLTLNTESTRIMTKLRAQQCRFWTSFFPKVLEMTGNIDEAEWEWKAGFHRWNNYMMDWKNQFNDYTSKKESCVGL
How it was run: as §1

[1] = Ferric reducing antioxidant power (FRAP) assay; conditions: for FRAP: mean ± standard error of three experiments;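 on FRAP: expressed as µM Fe2+ equivalents from an FeSO4·7H2O standard curve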
How it was run: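 Compounds at 10 and 100 µM were mixed with FRAP reagent (300 mM acetate buffer pH 3.6, TPTZ in HCl, FeCl3, 10:1:1) and incubated 60 min at 37 °C. Fe^2+-TPTZ formation read at 593 nm against a blank. Values derived from an Fe2SO4·7H2O standard curve, three independent experiments.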

[2] = Reverse-phase thin-layer chromatographic lipophilicity (RF, RM0); assay type: physicochemical; conditions: for RM0: intercept of RM = RM0 + bC; for b: slope of RM = RM0 + bC
How it was run: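 Reverse-phase TLC using mobile phases of methanol, acetone or dioxane with water and hydrochloric acid. Methanol varied in 10% steps; development distance 4.5 cm, ambient temperature (22±2 °C). RF measured and RM0 derived from retention.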

physchem = conditions: octadecyl-modified silica RP-18W F254s TLC plates, pH 0.5
Text: The mobile phase contained an organic modifier (methanol, acetone or dioxane), water, and hydrochloric acid. The content of hydrochloric acid was kept constant at 5% v/v, while the portions of organic modifier and water varied. […] Mobile phase MeOH/H2O/HCl, 70:25:5 (vol%) was used to determine the partition coefficients, logDexp, of the tested compounds at pH 0.5 (Supplementary Materials File S3 Table S7).
Chromatographic determination of lipophilicity
Lipophilicity of synthesized compounds was evaluated under reversed-phase thin-layer
chromatographic condition using the vertical developing chamber (CAMAG, Muttenz, Switzerland)
The mobile phase contained organic modifier (methanol, acetone or dioxane), water and hydrochloric acid. The content of hydrochloric acid was kept constant at 5 %v/v
while the portion of the organic modifier and water were changed. Methanol was varied in the range
with an increment of 10%. The chamber was saturated with a mobile phase being used 15 minutes
before chromatogram development. The solvent developing distance was 4.5 cm. Detection of
All experiments were performed at ambient temperature (22±2 °C). Retention parameters were calculated as previously described [7].
The logD values of the investigated substances were determined by the interpolation procedure. […]
LogD values of the investigated substances were determined from the equation of the calibration […]

[3] = Acetone/Water/Hydrochloric acid (conc.)
[4] = Dioxane/Water/Hydrochloric acid (conc.)
[5] = Methanol/Water/Hydrochloric acid (conc.)

SMILES: Clc1ccc2c(Nc3cccc4c(NCCC56CC7CC(CC(C7)C5)C6)cccc34)ccnc2c1 [Compound 19]
- IS (recombinant human AChE; IS = Ki(BChE)/Ki(AChE), IS > 1 selective to AChE): 5.8
- Ki (recombinant human AChE; log (Ki/µM AChE), read-out: Y Measured 1 log(ki)Ache (converted)): 3.8 µM
- Ki (recombinant human AChE; ± standard error, 25 °C, ATCh substrate, read-out: Ki AChE): 3.8 ± 0.3 µM
- decrease in BChE inhibition vs compound 5 (purified human BChE): up to 275 times
- Ki (purified human BChE; logarithm of Ki in µM, BChE, dependent variable of the QSAR model, read-out: Y Measured 2 log(ki)Bche, log (Ki/µM BChE) (converted)): 21.9 µM
- Ki (purified human BChE; ± standard error, 25 °C, ATCh substrate, read-out: Ki BChE): 22 ± 2 µM
- FRAP ([1]; 10 µM compound): 336 ± 12 µM
- FRAP ([1]; 100 µM compound): 2450 ± 210 µM
- reducing power (in words) ([1]; 10 and 100 µM): very good reducing power comparable to that of BHT and Trolox
- RM0 [2, 3]: 1.657
- b [2, 3]: 2.289
- RM0 [2, 4]: 1.551
- b [2, 4]: 2.623
- RM0 [2, 5]: 3.685
- b [2, 5]: 4.54
- RF, Methanol/Water/Hydrochloric acid (conc.), mobile phase I ([2]; RP-18 silica, I = 90%MeOH/5%H2O/5%HCl): 0.67
- RF, Dioxane/Water/Hydrochloric acid (conc.), mobile phase II ([2]; RP-18 silica, II = 80%Dioxane/15%H2O/5%HCl): 0.7
- RF, Methanol/Water/Hydrochloric acid (conc.), mobile phase II ([2]; RP-18 silica, II = 85%MeOH/10%H2O/5%HCl): 0.61
- RF, Acetone/Water/Hydrochloric acid (conc.), mobile phase III ([2]; RP-18 silica, III = 70%AC/25%H2O/5%HCl): 0.49
- RF, Dioxane/Water/Hydrochloric acid (conc.), mobile phase III ([2]; RP-18 silica, III = 70%Dioxane/25%H2O/5%HCl): 0.66
- RF, Methanol/Water/Hydrochloric acid (conc.), mobile phase III ([2]; RP-18 silica, III = 80%MeOH/15%H2O/5%HCl): 0.44
- RF, Dioxane/Water/Hydrochloric acid (conc.), mobile phase IV ([2]; RP-18 silica, IV = 60%Dioxane/35%H2O/5%HCl): 0.63
- RF, Acetone/Water/Hydrochloric acid (conc.), mobile phase IV ([2]; RP-18 silica, IV = 65%AC/30%H2O/5%HCl): 0.41
- RF, Methanol/Water/Hydrochloric acid (conc.), mobile phase IV ([2]; RP-18 silica, IV = 75%MeOH/20%H2O/5%HCl): 0.35
- RF, Acetone/Water/Hydrochloric acid (conc.), mobile phase IX ([2]; RP-18 silica, IX = 40%AC/55%H2O/5%HCl): 0.15
- RF, Methanol/Water/Hydrochloric acid (conc.), mobile phase IX ([2]; RP-18 silica, IX = 50%MeOH/45%H2O/5%HCl): 0
- RF, Dioxane/Water/Hydrochloric acid (conc.), mobile phase V ([2]; RP-18 silica, V = 50%Dioxane/45%H2O/5%HCl): 0.53
- RF, Acetone/Water/Hydrochloric acid (conc.), mobile phase V ([2]; RP-18 silica, V = 60%AC/35%H2O/5%HCl): 0.3
- RF, Methanol/Water/Hydrochloric acid (conc.), mobile phase V ([2]; RP-18 silica, V = 70%MeOH/25%H2O/5%HCl): 0.3
- RF, Dioxane/Water/Hydrochloric acid (conc.), mobile phase VI ([2]; RP-18 silica, VI = 40%Dioxane/55%H2O/5%HCl): 0.13
- RF, Acetone/Water/Hydrochloric acid (conc.), mobile phase VI ([2]; RP-18 silica, VI = 55%AC/40%H2O/5%HCl): 0.28
- RF, Methanol/Water/Hydrochloric acid (conc.), mobile phase VI ([2]; RP-18 silica, VI = 65%MeOH/30%H2O/5%HCl): 0.21
- RF, Acetone/Water/Hydrochloric acid (conc.), mobile phase VII ([2]; RP-18 silica, VII = 50%AC/45%H2O/5%HCl): 0.25
- RF, Methanol/Water/Hydrochloric acid (conc.), mobile phase VII ([2]; RP-18 silica, VII = 60%MeOH/35%H2O/5%HCl): 0.1
- RF, Acetone/Water/Hydrochloric acid (conc.), mobile phase VIII ([2]; RP-18 silica, VIII = 45%AC/50%H2O/5%HCl): 0.2
- RF, Methanol/Water/Hydrochloric acid (conc.), mobile phase VIII ([2]; RP-18 silica, VIII = 55%MeOH/40%H2O/5%HCl): 0.04
- chromatographic logD (physchem): -4.12
